Results reported in PubChem BioAssay (NCI).
Where “and” joins values, the source holds several entries; their conditions need not be identical. Identical values can stand only once.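 Grown in 96-well plates, cells were treated for 48 hours with each compound at five concentrations. Insufficient inhibition: endpoint recorded as highest concentration tested. GI50: concentration for 50% inhibition of growth. At the TGI there is no net growth.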

Assays:
Test in all cases: NCI anticancer screen, dose series, 48 h
[1] = tested on: CAKI-1 renal
[2] = tested on: OVCAR-4 ovarian
[3] = tested on: HCT-116 colon
[4] = tested on: SR leukemia
[5] = tested on: SF-295 CNS
[6] = tested on: TK-10 renal
[7] = tested on: SN12C renal
[8] = tested on: RPMI-8226 leukemia
[9] = tested on: DU-145 prostate
[10] = tested on: MDA-MB-435

SMILES	TGI [1] [µM]	TGI [2] [µM]	TGI [3]	TGI [4] [µM]	TGI [5] [µM]	TGI [6] [µM]	TGI [7] [µM]	TGI [8] [µM]	GI50 [1] [µM]	GI50 [2] [µM]	GI50 [9] [µM]	TGI [9]	GI50 [10] [µM]	TGI [10]	GI50 [3] [µM]	GI50 [4] [µM]	GI50 [5]	GI50 [6] [µM]	GI50 [7] [µM]	GI50 [8] [µM]
CCCCCCCCCCCCCCCCCC(=O)OCC(C[As](=O)(O)O)OC(=O)CCCCCCCCCCCCCCCCC (configuration not stated)	> 100	> 100	> 100 µM	38.9	> 100	> 100	> 100	80.8	–	–	–	–	–	–	–	–	–	–	–	–
NC(=O)Nc1c([N+](=O)[O-])cc(C(F)(F)F)cc1[N+](=O)[O-]	> 100	> 100	> 100 µM	> 100	> 100	> 100	> 100	> 100	–	–	–	–	–	–	–	–	–	–	–	–
COc1cc(C2CC(c3ccccc3)=NN2C(C)=O)cc(OC)c1OC (configuration not stated)	> 100	> 100	> 100 µM	> 100	4.15	> 100	> 100	> 27.7	2.45	11.7	5.26	77.3 µM	0.428	8.27 µM	2.83	0.996	0.576 µM	> 46.9	5.23	2.56
O=C1CCC(N2Cc3c(C#CCCCNC(=O)c4cc5c(o4)C(=O)c4ccccc4C5=O)cccc3C2=O)C(=O)N1 (configuration not stated)	30.7	4.73	10.3 µM	14.5	8.03	50.2	3.25	30.1	14.3	1.88	1.82	3.28 µM	1.81	3.27 µM	3.09	3.15	2.84 µM	33.1	1.69	6.93
Cc1cc2cc3cc(C)c(N)cc3[n+](C)c2cc1N	21.6	8.78	4.66 µM	8.17	11.4	12.7	10.2	4.57	3.44	1.52	1.77	9.64 µM	2.21	6.42 µM	1.15	1.99	1.56 µM	4.06	0.334	0.615
CC1=NC(C(C)C)C(=O)O1 (configuration not stated)	> 100	> 100	34.1 µM	–	> 100	> 100	> 100	56	–	–	–	–	–	–	–	–	–	–	–	–
CN(C)C1=NC2=S(SC(Nc3ccccc3)=N2)S1 (configuration not stated)	60.7	> 100	> 100 µM	> 100	88.9	85.5	> 100	57.1	–	–	–	–	–	–	–	–	–	–	–	–
Cc1c(-c2nnc(-c3ccc(F)cc3)o2)nnn1-c1ccnc2c(C(F)(F)F)cccc12	> 100	> 100	> 100 µM	–	> 100	98.8	> 100	> 100	29.5	21	30.4	> 100 µM	77.6	> 100 µM	16.7	–	29.6 µM	32.2	41.3	30.6
c1ccc(CN2CCCCC(Sc3ccccc3)CC2)cc1 (configuration not stated)	69.6	> 100	43.9 µM	37.7	> 100	> 100	61.8	38.9	–	–	–	–	–	–	–	–	–	–	–	–
CCC[CH2][Sn]1([CH2]CCC)[O]CC(CN2CCOCC2)[O]1 (configuration not stated)	6.51	23.4	21 µM	6.13	10.9	12.1	16.7	4.7	1.36	11.2	–	–	–	–	8.84	1.56	2.46 µM	4.02	5.02	1.44
COC(=O)C1=C(c2ccc3c(c2)OCO3)OC(c2ccc3c(c2)OCO3)C1 (configuration not stated)	> 100	> 100	> 100 µM	> 100	> 100	> 100	> 100	> 100	–	–	–	–	–	–	–	–	–	–	–	–
COC(=O)C1=C(CS(=O)c2ccc([N+](=O)[O-])cc2[N+](=O)[O-])ON(C)C1c1ccccc1 (configuration not stated)	> 60.8	> 100	> 100 µM	–	> 100	> 74.8	> 63.3	46	–	–	–	–	–	–	–	–	–	–	–	–
CCCCCNC(=O)c1c(O)[nH]c(=S)[nH]c1=O	> 100	> 100	> 100 µM	> 100	> 100	> 100	> 100	> 100	–	–	–	–	–	–	–	–	–	–	–	–
O=C1OC(c2ccccc2)=N/C1=C\c1cc(Cl)ccc1Cl	–	> 100	> 100 µM	–	> 100	–	> 100	> 100	–	–	–	–	–	–	–	–	–	–	–	–
COC(=O)/C(=N\NC(=S)NN)C(C(=O)OC)C(=O)C(=O)Nc1cccc(C(F)(F)F)c1 (configuration not stated)	> 100	> 100	> 100 µM	–	> 100	> 100	> 100	> 100	–	–	–	–	–	> 100 µM	–	–	–	–	–	–
NC(=O)CCC(NC(=O)Cc1ccccc1)C(=O)O (configuration not stated) (tested in a mixture with another compound)	> 8130	> 8130	> 8130 µM	> 8130	> 8130	> 8130	> 8130	> 8130	–	–	–	–	–	–	–	–	–	–	–	–
O=C1c2cc([N+](=O)[O-])cc3cc([N+](=O)[O-])cc(c23)C(=O)N1CCCNCCNCCCN1C(=O)c2cc([N+](=O)[O-])cc3cc([N+](=O)[O-])cc(c23)C1=O	8.4	3.31	0.667 µM	–	8	7.04	2.2	0.278	–	–	–	19.4 µM	–	–	–	–	–	–	–	–
COC(=O)CS(=O)c1ccccc1 (configuration not stated)	> 100	> 100	> 100 µM	–	> 100	> 100	40.4	52.2	–	–	–	–	–	–	–	–	–	–	–	–
O=C(c1nc2ccc(Cl)cc2[nH]c1=O)C(O)c1ccc2c(c1)OCO2 (configuration not stated)	–	> 100	–	–	> 100	> 100	–	> 100	–	–	–	–	–	–	–	–	–	–	–	–
CC(=O)c1ccc(NC(=O)C(=O)C(C(=O)c2ccc(Cl)c(Cl)c2)C2OC(=O)c3ccccc32)cc1 (configuration not stated)	> 100	> 100	25.8 µM	> 100	–	> 100	59.9	–	–	–	–	–	–	–	–	–	–	–	–	–
COC1OC(COS(=O)(=O)c2ccc(C)cc2)C(O)C(OS(=O)(=O)c2ccc(C)cc2)C1OS(=O)(=O)c1ccc(C)cc1 (configuration not stated)	> 100	> 100	> 100 µM	> 100	> 100	–	> 100	> 100	–	–	–	–	–	–	–	–	–	–	–	–

SMILES	TGI [1] [µM]	TGI [2] [µM]	TGI [3]	TGI [4] [µM]	TGI [5] [µM]	TGI [6] [µM]	TGI [7] [µM]	TGI [8] [µM]	GI50 [1] [µM]	GI50 [2] [µM]	GI50 [9] [µM]	TGI [9]	GI50 [10] [µM]	TGI [10]	GI50 [3] [µM]	GI50 [4] [µM]	GI50 [5]	GI50 [6] [µM]	GI50 [7] [µM]	GI50 [8] [µM]
CC1=CC(=O)c2c(C=O)c(O)c(O)c(C(C)C)c2C1=O	52.9	23.8	38.5 µM	> 74.4	–	–	> 100	> 62.8	–	–	–	–	–	–	–	–	–	–	–	–
Cc1ccc(C(=O)C#Cc2c[nH]c(=O)[nH]c2=O)cc1	30.5	47.3	18.5 µM	–	> 100	31.9	16.2	–	–	–	–	–	–	–	–	–	–	–	–	–
COc1cc(Nc2nc3cc(C(F)(F)F)ccc3nc2-c2ccccc2)cc(OC)c1OC	0.0575	51.3	–	> 100	> 100	77	> 100	–	–	–	–	–	–	–	–	–	–	–	–	–
Cc1cc(=O)oc2c(OS(C)(=O)=O)c(OS(C)(=O)=O)ccc12	> 100	> 100	> 100 µM	> 100	> 100	> 100	> 100	> 100	–	–	–	–	–	> 100 µM	–	–	–	–	–	–
COc1cc(/C=C2\C(=O)N(c3ccccc3)c3ccccc32)cc(OC)c1OC	61.3	23.7	12.4 µM	10.4	81.3	37.3	24.7	5.78	12.5	10.4	–	–	5.85	36.6 µM	3.47	2.1	17.8 µM	16.3	5.4	2.17
CCOC(=O)C(C(=O)OCC)=C1N[C@H](C(=O)OCC)CS1	> 100	> 100	> 100 µM	> 100	> 100	–	> 100	> 100	–	–	–	–	–	–	–	–	–	–	–	–
C=C(C)[C@@H]1CC[C@]2(C(=O)O)CC[C@]3(C)[C@H](CC[C@@H]4[C@@]5(C)C/C(=C/c6ccc(OC)cc6)C(=O)C(C)(C)[C@@H]5CC[C@]43C)[C@@H]12	11.5	11.2	3.82 µM	–	4.45	20.7	5.9	–	2.16	2.5	3.09	15.3 µM	1.84	4.02 µM	1.62	–	1.71 µM	2.6	2.07	–
COc1ccc2cc(Cn3cc[n+](Cc4ccc5ccccc5c4)c3)ccc2c1	–	8.06	7.43 µM	4.27	21.9	15	8.97	3.65	–	2.27	4.49	16.9 µM	1.79	4.12 µM	2.23	1.68	4.95 µM	3.72	2.53	1.33
COc1ccc(C(=O)CC(=O)C(=O)Nc2ccc(C)c(C)c2)cc1	> 100	> 100	> 64.4 µM	> 100	> 100	> 100	> 100	> 68	–	–	–	–	–	–	–	–	–	–	–	–
O=C(O)c1cccc2cccc(C(=O)O)c12.[Hg]	53.8	32.6	29.3 µM	23.5	32.2	34.6	27.7	–	21.7	18	–	–	–	–	15.9	4.05	17.8 µM	20.3	14.6	–
O=C1CC[C@H](c2ccc(O)c3c2C(=O)[C@@H]2O[C@@H]2C3=O)c2cccc(O)c21	9.33	13.9	3.89 µM	4.57	29.7	2.93	–	–	1.41	3.51	–	–	1.92	4.2 µM	1.97	0.835	15.4 µM	1.49	–	–
COc1ccc(-c2cc(-c3cc(C)ccc3O)[nH]c(=O)n2)cc1	> 100	> 100	> 100 µM	> 100	> 100	> 100	> 100	> 100	–	–	–	–	–	–	–	–	–	–	–	–
CCCc1nc(NC#N)nc(C(=O)NC23CC4CC(CC(C4)C2)C3)c1C	> 100	> 100	> 100 µM	> 100	> 100	> 100	> 100	> 100	–	–	–	–	–	–	–	–	–	–	–	–
NCCCNCCSSC/C=C\CSSCCNCCCN	> 100	> 100	–	–	> 100	> 100	> 100	> 100	–	–	–	–	–	–	–	–	81.3 µM and 39.9 µM	–	–	–
Oc1ccc(-c2cn3cc(Cl)sc3n2)cc1	> 100	–	–	18.8	> 100	84.9	94.8	40.7	41.5	–	–	–	32.3	> 100 µM	–	4.51	47.3 µM	40.4	0.248	16.5
CCC1CC(C)=CCN1S(=O)(=O)c1ccc(C)cc1 (configuration not stated)	> 100	> 100	> 100 µM	32.7	> 100	–	24.3	20.5	–	–	–	–	–	–	–	–	–	–	–	–
COc1ccc(NC(=O)CC(=O)N2N=C(N(CCC#N)c3cccc(C)c3)CC2c2ccccc2)cc1 (configuration not stated)	> 100	> 100	> 100 µM	> 100	> 100	–	> 100	> 100	–	–	–	–	–	–	–	–	–	–	–	–
O=NN/C(=C1\Nc2ccc([N+](=O)[O-])cc2NC1=O)C(O)c1ccc([N+](=O)[O-])cc1 (configuration not stated)	> 100	> 100	> 100 µM	> 100	> 100	–	> 100	> 100	–	–	–	–	–	–	–	–	–	–	–	–
COc1ccc(-c2nc(N3CCOCC3)c3sc(CN(C)c4ncc(C(=O)NO)cn4)cc3n2)cn1	0.0436	1.82	–	0.234	0.042	–	1.27	–	0.0176	0.0147	< 0.01	0.141 µM	< 0.01	0.0284 µM	–	< 0.01	< 0.01 µM	–	0.0168	< 0.01
COC1=C2C[C@@H](C)C[C@@H](OC)[C@@H](O)[C@H](C)/C=C(\C)[C@@H](OC(N)=O)[C@H](OC)/C=C\C=C(/C)C(=O)NC(=CC1=O)C2=O	–	–	3.95 µM and 5.44 µM and 1.88 µM	–	–	–	–	–	–	–	–	4.66 µM and 10.3 µM and 14.2 µM	–	5.5 µM and 8.63 µM and 5.65 µM	–	–	–	–	–	–
